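All cell lines were grown in 96-well plates and treated with compound for 48 hours. TGI: total growth inhibition.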 Where a SMILES comes first, the peptide text is derived from it. [ ]: non-standard residue; d: D form. The star is where a group is joined. ξ: configuration not given here. NMeY = CN[C@@H](Cc1ccc(O)cc1)C(=O)O; Cbz = O=C(OCc1ccccc1)*; ξA = CC(N)C(=O)O
Columns and labels:
Assay in all cases: DTP human tumour cell line panel, 48 h
EKVX NSCLC = system: EKVX NSCLC
HCT-15 colon = system: HCT-15 colon
K-562 leukemia = system: K-562 leukemia
KM12 colon = system: KM12 colon
MALME-3M melanoma = system: MALME-3M melanoma
NCI-H460 lung = system: NCI-H460 lung
OVCAR-3 ovarian = system: OVCAR-3 ovarian
SW-620 colon = system: SW-620 colon
UACC-62 melanoma = system: UACC-62 melanoma
UO-31 renal = system: UO-31 renal
SF-539 CNS = system: SF-539 CNS

Structure (SMILES) | TGI (EKVX NSCLC) | TGI (HCT-15 colon) | TGI (K-562 leukemia) | TGI (KM12 colon) | TGI (MALME-3M melanoma) | TGI (NCI-H460 lung) | TGI (OVCAR-3 ovarian) | TGI (SW-620 colon) | TGI (UACC-62 melanoma) | TGI (UO-31 renal) | TGI (SF-539 CNS)
CCOC(=O)/C(C1=NCCN1C)=C(\O)c1ccccc1 | > 100 µM | > 100 µM | > 100 µM | > 100 µM | > 100 µM | > 100 µM | > 100 µM | > 100 µM | > 100 µM | > 100 µM | 
CC(=Nc1ccc(Cl)cc1)c1ccncc1 | > 100 µM | > 100 µM | > 100 µM | > 100 µM | > 100 µM | > 100 µM | > 100 µM | > 100 µM |  | > 100 µM | 77.9 µM
CC/C(Cl)=N\OC(=O)Nc1ccc(F)c(Cl)c1 | 32.9 µM | 35.5 µM | 3.26 µM | 35 µM | 9.29 µM | 34.3 µM | 8.03 µM | 6.92 µM | 46.3 µM | 32.3 µM | 37.3 µM
COc1ccc(C[C@@H](C(=O)N[C@@H](C)C(N)=O)N(C)C(=O)[C@@H]2CCCN2C(=O)[C@H](CC(C)C)NC(=O)C(C)NC(=O)OCc2ccccc2)cc1 (some centres not stated) (Cbz-[ξA]LP[NMeY](Me)A-NH2) | > 100 µM | > 100 µM | > 100 µM | > 100 µM | > 100 µM | > 100 µM | > 100 µM | > 100 µM | > 100 µM | > 100 µM | > 100 µM
O=C(c1ccccc1)n1cc(/C=C/[N+](=O)[O-])c2ccccc21 | > 100 µM | 39.8 µM | 47.7 µM | 32.5 µM | 96.7 µM | 43.3 µM | > 100 µM | 38.1 µM | 36.9 µM | 66.1 µM | 46.4 µM
COc1ccc(/C(C)=C2\CCCN(Cc3ccccc3)C2)cc1 | > 100 µM | 46.1 µM | 63.4 µM | 33.3 µM | 34.8 µM | 53.5 µM | 37.4 µM | 36.1 µM | 57.9 µM | 44.1 µM | 35.2 µM
CNC(=O)O/N=C1\N(C)CN(c2ccccc2)C12CCN(CCCC(=O)c1ccc(F)cc1)CC2 | > 100 µM | > 100 µM | > 100 µM | 81.7 µM | 90.8 µM | > 100 µM | > 100 µM | > 100 µM | > 100 µM | > 100 µM | > 100 µM
Cc1cc(C)c(NS(=O)c2ccc(Cl)cc2)c(C)c1 (configuration not stated) | > 100 µM | > 100 µM | > 100 µM | > 100 µM | > 100 µM | > 100 µM | > 100 µM | > 100 µM |  | > 100 µM | > 100 µM
CCOC(=O)/C(=C\c1c[nH]c2ccccc12)P(=O)(OCC)OCC | > 100 µM | 72.6 µM | > 100 µM | > 100 µM | > 100 µM | 61.9 µM | 59.9 µM | > 100 µM | > 100 µM |  | 43.6 µM
Cc1c2c(n3c(nc4ccccc43)c1C#N)N(c1ccc(F)cc1)CC2 |  | > 100 µM |  |  | > 100 µM | > 100 µM | > 100 µM | > 100 µM | > 100 µM | > 100 µM | > 100 µM
Cc1c(-c2coc(-c3ccc([N+](=O)[O-])cc3)n2)c(=O)n(-c2ccccc2)n1C | > 100 µM | > 100 µM |  | > 100 µM | > 100 µM | > 100 µM | > 100 µM |  | > 100 µM | > 100 µM | > 100 µM
COC(C)=NCCC1=CCCCC1 | > 100 µM | > 100 µM | > 100 µM | > 100 µM | > 100 µM | > 100 µM | > 100 µM | > 100 µM | > 100 µM | > 100 µM | 
N#CCCC1(CCC#N)S(=O)(=O)OCCOS1(=O)=O | > 100 µM | > 100 µM |  | > 100 µM | > 100 µM |  | > 100 µM | > 100 µM | > 100 µM | > 100 µM | 31.1 µM
CCC1(c2ccc(OC)c(OC)c2)CCN(S(=O)(=O)c2ccc(C)cc2)C1 (configuration not stated) | > 100 µM | > 100 µM | > 10 µM | > 100 µM |  | > 100 µM | > 100 µM | > 100 µM | > 100 µM | > 100 µM | > 100 µM
c1ccc2cc(C3NCCc4[nH]cnc43)ccc2c1 (configuration not stated) |  | > 100 µM | > 100 µM | 56.2 µM |  | > 100 µM | > 100 µM | > 100 µM | > 100 µM | > 100 µM | > 100 µM
CC(C)CCNC(=O)c1ccc(CNC(=O)/C=C/c2ccc3ccccc3c2)cc1 | > 100 µM | > 100 µM | > 100 µM | > 100 µM |  | > 100 µM | > 100 µM | > 100 µM | > 100 µM | > 100 µM | 
O=C(O)C12C3CCC(C3)C1(C(=O)O)C1CCC2C1 (configuration not stated) | > 100 µM | > 100 µM | > 100 µM | > 100 µM | > 100 µM | > 100 µM | > 100 µM | 34.2 µM | > 100 µM | > 100 µM | 
COc1cc(-c2nc(N)c(C#N)c3c2CCS(=O)(=O)c2ccc(C)cc2-3)cc(OC)c1OC |  | > 100 µM | > 100 µM | > 100 µM | > 100 µM | > 100 µM | > 100 µM | > 100 µM | > 100 µM | > 100 µM | 
Cc1cc2c(cc1Cl)SC(NNCCO)=NS2(=O)=O | > 100 µM | > 100 µM | > 100 µM | > 100 µM |  | > 100 µM |  | > 100 µM | > 100 µM | > 100 µM | > 100 µM
O=C(Nn1c(-c2ccccc2)nc2ccccc2c1=O)c1cccc([N+](=O)[O-])c1 | > 100 µM | > 100 µM | > 100 µM | > 100 µM |  | > 100 µM | > 100 µM | > 100 µM | > 100 µM | > 100 µM | > 100 µM
COC(=O)c1cc(/C=C/C(=O)Cc2ccccc2)cn1S(=O)(=O)c1ccccc1 | > 100 µM | > 100 µM | > 100 µM | > 100 µM | > 100 µM | > 100 µM | > 100 µM |  | > 100 µM | > 100 µM | > 100 µM

Reference: PubChem BioAssay (NCI)
